Assay results as given in ChEMBL document CHEMBL1212839 (J Med Chem, 2010).

Assays:
[1] = molecular target: Substance-P receptor (Homo sapiens, UniProt P25103); assay: Displacement of [3H]substance P frome human NK1 receptor
[2] = molecular target: T1, Mu-type opioid receptor (Rattus norvegicus, UniProt P33535); assay: Displacement of [3H]DPDPE from rat mu opioid receptor
[3] = molecular target: T2, Delta-type opioid receptor (Homo sapiens, UniProt P41143); assay: Displacement of [3H]DPDPE from human delta opioid receptor
T2 sequence (P41143 whole entry): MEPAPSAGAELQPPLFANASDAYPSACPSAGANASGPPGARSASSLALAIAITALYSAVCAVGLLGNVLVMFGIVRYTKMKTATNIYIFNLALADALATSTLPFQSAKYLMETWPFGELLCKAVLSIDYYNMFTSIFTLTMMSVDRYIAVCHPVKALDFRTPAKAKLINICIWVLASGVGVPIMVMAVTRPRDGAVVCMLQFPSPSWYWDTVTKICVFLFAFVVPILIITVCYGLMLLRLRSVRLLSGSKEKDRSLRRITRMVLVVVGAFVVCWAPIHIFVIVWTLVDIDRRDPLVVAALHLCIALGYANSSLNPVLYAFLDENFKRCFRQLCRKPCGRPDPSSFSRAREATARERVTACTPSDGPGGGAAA

[4] = molecular target: T2, Delta-type opioid receptor; assay: Agonist activity at human opioid delta receptor expressed in mouse HN9.10 cells assessed as [35S]GTPgammaS binding; type: functional, cell-based
[5] = molecular target: T1, Mu-type opioid receptor; assay: Agonist activity at rat mu opioid receptor expressed in mouse HN9.10 cells assessed as [35S]GTPgammaS binding; type: functional, cell-based
[6] = molecular target: Mu-type opioid receptor (Cavia porcellus) (UniProt P97266); conditions: Ileum, 1 uM
Sequence of Mu-type opioid receptor (Cavia porcellus) (P97266 whole entry): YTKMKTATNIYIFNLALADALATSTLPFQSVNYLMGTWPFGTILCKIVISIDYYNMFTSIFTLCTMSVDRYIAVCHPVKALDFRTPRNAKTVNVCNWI

[7] = molecular target: Mu-type opioid receptor (Rattus norvegicus) (UniProt P33535); assay: Agonist activity at rat mu opioid receptor expressed in mouse HN9.10 cells assessed as [35S]GTPgammaS binding relative to control; type: functional, cell-based
Sequence of Mu-type opioid receptor (Rattus norvegicus) (P33535 whole entry): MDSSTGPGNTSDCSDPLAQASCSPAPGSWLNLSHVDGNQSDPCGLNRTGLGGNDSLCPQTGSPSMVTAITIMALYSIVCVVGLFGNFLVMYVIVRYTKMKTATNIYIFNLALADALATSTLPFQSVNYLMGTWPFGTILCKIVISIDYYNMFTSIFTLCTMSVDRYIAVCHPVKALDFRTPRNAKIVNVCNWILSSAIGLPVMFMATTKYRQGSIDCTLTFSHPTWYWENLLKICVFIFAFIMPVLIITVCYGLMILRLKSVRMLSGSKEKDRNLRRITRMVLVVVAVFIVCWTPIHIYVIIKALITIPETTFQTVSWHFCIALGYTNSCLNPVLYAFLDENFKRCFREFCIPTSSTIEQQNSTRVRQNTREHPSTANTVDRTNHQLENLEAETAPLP

[8] = molecular target: T3, Delta-type opioid receptor (Mus musculus, UniProt P32300)
T3 sequence (P32300 whole entry): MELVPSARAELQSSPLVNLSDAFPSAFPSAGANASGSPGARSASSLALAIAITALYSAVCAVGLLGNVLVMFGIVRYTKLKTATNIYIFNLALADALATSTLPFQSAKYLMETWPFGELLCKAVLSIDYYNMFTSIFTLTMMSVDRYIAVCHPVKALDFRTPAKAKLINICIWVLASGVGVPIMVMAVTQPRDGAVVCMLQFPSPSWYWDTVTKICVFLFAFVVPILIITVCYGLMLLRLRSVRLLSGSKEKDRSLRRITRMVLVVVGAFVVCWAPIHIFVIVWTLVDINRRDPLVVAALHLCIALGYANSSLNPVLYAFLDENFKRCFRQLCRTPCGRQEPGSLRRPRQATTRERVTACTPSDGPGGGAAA

[9] = molecular target: Substance-P receptor (Cavia porcellus) (UniProt P30547); conditions: Ileum
Sequence of Substance-P receptor (Cavia porcellus) (P30547 whole entry): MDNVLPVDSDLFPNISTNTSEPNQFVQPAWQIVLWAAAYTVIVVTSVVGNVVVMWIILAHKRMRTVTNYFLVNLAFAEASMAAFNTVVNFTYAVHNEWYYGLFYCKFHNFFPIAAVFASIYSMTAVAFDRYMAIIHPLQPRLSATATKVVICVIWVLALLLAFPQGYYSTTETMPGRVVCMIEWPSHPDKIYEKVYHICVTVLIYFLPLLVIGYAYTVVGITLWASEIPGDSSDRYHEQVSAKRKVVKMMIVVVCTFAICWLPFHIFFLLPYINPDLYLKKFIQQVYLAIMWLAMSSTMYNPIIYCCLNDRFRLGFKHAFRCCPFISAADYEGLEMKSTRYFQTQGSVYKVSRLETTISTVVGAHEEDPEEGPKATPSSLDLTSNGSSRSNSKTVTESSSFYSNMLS

[10] = molecular target: T3, Delta-type opioid receptor; remark: listed apart in the source

T1 sequence (P33535 whole entry): as the sequence (P33535 whole entry) above
Sequence of Substance-P receptor (P25103 whole entry): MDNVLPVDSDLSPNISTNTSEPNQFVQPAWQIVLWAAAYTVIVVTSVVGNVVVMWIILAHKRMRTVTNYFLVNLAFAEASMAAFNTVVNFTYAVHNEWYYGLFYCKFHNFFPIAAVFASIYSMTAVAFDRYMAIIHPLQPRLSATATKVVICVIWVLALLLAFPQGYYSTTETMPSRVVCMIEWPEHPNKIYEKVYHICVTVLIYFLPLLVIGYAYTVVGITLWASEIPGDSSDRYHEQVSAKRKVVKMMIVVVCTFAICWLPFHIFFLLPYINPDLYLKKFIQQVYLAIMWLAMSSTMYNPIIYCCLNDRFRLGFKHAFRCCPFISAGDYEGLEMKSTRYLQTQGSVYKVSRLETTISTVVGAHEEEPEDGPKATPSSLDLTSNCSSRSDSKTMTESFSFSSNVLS

Row | Compound | IC50 [1] [nM] | Ki [1] [nM] | IC50 [2] [nM] | Ki [2] [nM] | IC50 [3] [nM] | Ki [3] [nM] | EC50 [4] [nM] | EC50 [5] [nM] | inhibition [6] [%] | pIC50 [1] | pIC50 [2] | pIC50 [3] | pEC50 [5] | Emax [7] [%] | IC50 [8] [nM] | Ke [9] [nM] | IC50 [10] [nM]
1 | CC(C)C[C@H](NC(=O)[C@@H]1CCCN1C(=O)[C@H]1NC(=O)[C@H](Cc2ccccc2)NC(=O)CNC(=O)[C@@H](NC(=O)[C@@H](N)Cc2ccc(O)cc2)C(C)(C)SSC1(C)C)C(=O)N[C@@H](Cc1c[nH]c2ccccc12)C(=O)NCc1cc(C(F)(F)F)cc(C(F)(F)F)c1 | 0.417 | 0.18 | 4170 | 2100 | 72.4 | 38 | 120 | 130 | 0.6 | – | – | – | – | – | – | – | –
2 | CC(C)C[C@H](NC(=O)[C@@H]1CCCN1C(=O)[C@H]1NC(=O)[C@H](Cc2ccccc2)NC(=O)CNC(=O)[C@H](NC(=O)[C@@H](N)Cc2ccc(O)cc2)C(C)(C)SSC1(C)C)C(=O)N[C@@H](Cc1c[nH]c2ccccc12)C(=O)NCc1cc(C(F)(F)F)cc(C(F)(F)F)c1 | 0.0123 | – | 4370 | – | 3.63 | – | – | – | – | – | – | – | – | – | – | – | –
3 | CC(C)C[C@H](NC(=O)[C@@H]1CCCN1C(=O)[C@@H]1NC(=O)[C@H](Cc2ccccc2)NC(=O)CNC(=O)[C@@H](NC(=O)[C@@H](N)Cc2ccc(O)cc2)C(C)(C)SSC1(C)C)C(=O)N[C@@H](Cc1c[nH]c2ccccc12)C(=O)NCc1cc(C(F)(F)F)cc(C(F)(F)F)c1 | – | – | – | – | – | – | – | – | 26 | – | – | – | – | – | – | – | –
4 | CCCC[C@@H]1NC(=O)[C@H](Cc2ccccc2)NC(=O)CNC(=O)[C@@H](NC(=O)[C@@H](N)Cc2ccc(O)cc2)C(C)(C)SSC(C)(C)[C@H](C(=O)N2CCC[C@H]2C(=O)N[C@@H](CC(C)C)C(=O)N[C@@H](Cc2c[nH]c3ccccc23)C(=O)NCc2cc(C(F)(F)F)cc(C(F)(F)F)c2)NC(=O)[C@@H]2CCCN2C1=O | – | 59 | – | 2000 | – | 150 | 530 | 2900 | 6 | 6.87 | 5.43 | 6.5 | 5.67 | 15 | 250 | 72 | –
5 | CCCC[C@@H]1NC(=O)[C@H](Cc2ccccc2)NC(=O)CNC(=O)[C@@H](NC(=O)[C@@H](N)Cc2ccc(O)cc2)C(C)(C)SSC(C)(C)[C@@H](C(=O)N2CCC[C@H]2C(=O)N[C@@H](CC(C)C)C(=O)N[C@@H](Cc2c[nH]c3ccccc23)C(=O)NCc2cc(C(F)(F)F)cc(C(F)(F)F)c2)NC(=O)[C@@H]2CCCN2C1=O | 4.27 | 1.9 | 2040 | 1000 | 1380 | 720 | 120 | 140 | 7 | – | – | – | – | 26 | – | 66 | 1100
